#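 Step 1: Grow cells in 96-well plates. Step 2: Expose to compound for 48 hours at 5 concentrations. Step 3: Interpolate endpoints linearly; if unreached, use highest concentration. Abbreviation: GI50, concentration required for 50% inhibition of growth. TGI: concentration producing complete growth inhibition.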
# Key:
# Experiment in all cases: NCI anticancer screen, dose series, 48 h
# CAKI-1 renal = system: CAKI-1 renal
# HL-60(TB) leukemia = system: HL-60(TB) leukemia
# MALME-3M melanoma = system: MALME-3M melanoma
# NCI-H226 lung = system: NCI-H226 lung
# NCI-H23 lung = system: NCI-H23 lung
# OVCAR-5 ovarian = system: OVCAR-5 ovarian
# SK-OV-3 ovarian = system: SK-OV-3 ovarian
# TK-10 renal = system: TK-10 renal
# UACC-257 melanoma = system: UACC-257 melanoma
# UO-31 renal = system: UO-31 renal
SMILES,TGI (CAKI-1 renal),TGI (HL-60(TB) leukemia),TGI (MALME-3M melanoma),TGI (NCI-H226 lung),TGI (NCI-H23 lung),TGI (OVCAR-5 ovarian),TGI (SK-OV-3 ovarian),TGI (TK-10 renal),TGI (UACC-257 melanoma),TGI (UO-31 renal),GI50 (CAKI-1 renal),GI50 (HL-60(TB) leukemia),GI50 (MALME-3M melanoma),GI50 (NCI-H226 lung),GI50 (NCI-H23 lung),GI50 (OVCAR-5 ovarian),GI50 (SK-OV-3 ovarian),GI50 (TK-10 renal),GI50 (UACC-257 melanoma),GI50 (UO-31 renal)
O=C1CC(c2c(-c3ccccc3)[nH]c3ccccc23)C(=O)N1 (centres undefined),> 100 µM,> 100 µM,> 100 µM,> 100 µM,> 100 µM,> 100 µM,> 100 µM,> 100 µM,> 100 µM,> 100 µM,–,–,–,–,–,–,–,–,–,–
N#Cc1c(NC(=O)NCc2ccccc2)sc2c1CCCC2,> 100 µM,3.13 µM,> 100 µM,> 41.3 µM,> 26.3 µM,> 100 µM,> 100 µM,> 100 µM,> 100 µM,> 100 µM,0.776 µM,0.3 µM,0.598 µM,1.3 µM,1.18 µM,2.39 µM,9.2 µM,14.6 µM,> 71 µM,0.74 µM
C[C@]12CC[C@@H]3c4cc(OC(F)F)c(O)cc4CC[C@H]3[C@@H]1CC[C@@H]2OS(N)(=O)=O,> 70.2 µM,2.8 µM,27.4 µM,60.5 µM,50.8 µM,> 100 µM,98 µM,> 92.5 µM,79.6 µM,37.6 µM,0.548 µM,0.313 µM,0.348 µM,6.64 µM,1.46 µM,3.51 µM,2.77 µM,14.6 µM,16.7 µM,1.11 µM
CC1(C)N=C(N)N=C(N)N1c1ccc(CCCCc2ccccc2)c(Cl)c1,16.8 µM,3.26 µM,8.93 µM,24.4 µM,10.2 µM,22.4 µM,11.1 µM,17.5 µM,5.26 µM,25.6 µM,0.869 µM,–,0.855 µM,0.275 µM,0.0543 µM,0.331 µM,0.43 µM,0.0721 µM,0.247 µM,4.89 µM
Cc1cc(Nc2ccc(OCc3ccccc3)cc2)nc2cc(O)ccc12,18.3 µM,14.7 µM,11.2 µM,17.6 µM,21.5 µM,18.4 µM,26.7 µM,29.2 µM,13.5 µM,6.58 µM,4.88 µM,3.38 µM,3.88 µM,3.49 µM,6.91 µM,4.66 µM,13.4 µM,14.5 µM,3.49 µM,2.04 µM

# From PubChem BioAssay (NCI)
